Data from patent US20080207641A1 (Synta Pharmaceuticals Corp., priority 2006, published 2008).
Values after ≈ are worked out from the molar mass of the structure shown.

Key:
[1] = Solubility of salts (water solubility); format: physicochemical; settings: for Water Solubility: salts of the parent compound
[2] = Pharmacokinetic profile / oral bioavailability in male SD rats; format: in vivo; settings: rat; for AUC(0-inf) / AUC(0-t) / Cmax / Tmax / half-life: plasma
Protocol: The pharmacokinetic profile of 3-fluoro-N-(4-(4-methyl-1-(thiazol-2-yl)-1,2,5,6-tetrahydro pyridin-3-yl)phenyl)isonicotinamide dihydrochloride was studied in male SD rats. Rats were bled at 5 min (IV only), 15 min, 30 min, 1 h, 2 h, 4 h, 6 h, 8 h and 24 h. Samples were prepared by mixing 50 μL of plasma, 5 μL, DMSO, and 250 μL of ACN, followed by shaking for 5 min, centrifuging at 4400 rpm for 15 min at 8° C. 225 μL of supernatant was vacuum dried, reconstituted with 180 μL of 20% ACN (10 mM NH4OAc), shaken for ˜2 min and transferred to 96MT plate. Samples were analyzed by HPLC, Phenomenex Onyx Monolithic C18, 4.6×100 mm column eluted with 30-95% ACN (10 mM NH4OAc) gradient. Detection was at 280 nm.

IL-2 production = experiment: Inhibition of IL-2 production in PHA-activated Jurkat cells (ELISA); format: cell-based; settings: Homo sapiens, 20 h, PHA 2.5 μg/mL, 20 hours at 37° C., IL-2 ELISA
Protocol: Jurkat cells were placed in a 96 well plate (0.5 million cells per well in 1% FBS medium) then a test compound of this invention was added at different concentrations. After 10 minutes, the cells were activated with PHA (final concentration 2.5 μg/mL) and incubated for 20 hours at 37° C. under CO2. The final volume was 200 μL. Following incubation, the cells were centrifuged and the supernatants collected and stored at −70° C. prior to assaying for IL-2 production. A commercial ELISA kit (IL-2 Eli-pair, Diaclone Research, Besancon, France) was used to detect production of IL-2, from which dose response curves were obtained. The IC50 value was calculated as the concentration at which 50% of maximum IL-2 production after stimulation was inhibited versus a non-stimulation control.

[3] = Solubility in simulated gastric fluids; format: physicochemical
Description: Solubility in Simulated Gastric Fluids

With `CC1=C(c2ccc(NC(=O)c3ccncc3F)cc2)CN(c2nccs2)CC1` [Citrate, 3-fluoro-N-(4-(4-methyl-1-(thiazol-2-yl)-1,2,5,6-tetrahydropyridin-3-yl)phenyl)isonicotinamide] the “Water Solubility” value [1] was 1.19 mg/mL.

For `CC1=C(c2ccc(NC(=O)c3ccncc3F)cc2)CN(c2nccs2)CC1` [Compound H2SO4, 3-fluoro-N-(4-(4-methyl-1-(thiazol-2-yl)-1,2,5,6-tetrahydropyridin-3-yl)phenyl)isonicotinamide], the “Water Solubility” value [1] was 12.69 mg/mL.

For `CC1=C(c2ccc(NC(=O)c3ccncc3F)cc2)CN(c2nccs2)CC1` [Succinate, 3-fluoro-N-(4-(4-methyl-1-(thiazol-2-yl)-1,2,5,6-tetrahydropyridin-3-yl)phenyl)isonicotinamide], the “Water Solubility” value [1] was 0.36 mg/mL.

Compound `CC1=C(c2ccc(NC(=O)c3ccncc3F)cc2)CN(c2nccs2)CC1.Cl.Cl` [3-fluoro-N-(4-(4-methyl-1-(thiazol-2-yl)-1,2,5,6-tetrahydropyridin-3-yl)phenyl)isonicotinamide dihydrochloride] has a solubility ([1]; dihydrochloride salt) greater than 12 mg/mL, a bioavailability ([2]; in vivo, PO, 50 mg/kg, 0.5% MC, read-out: % F (oral bioavailability)) of 93.4% and an AUC(0-inf) ([2]; IV, 5 mg/kg, DRD formulation) of 37.6 µM·h. The AUC(0-t) ([2]; IV, 5 mg/kg, DRD formulation) was 37.5 µM·h, the Cmax ([2]; IV, 5 mg/kg, DRD formulation) was 34.6 µM and the Tmax ([2]; IV, 5 mg/kg, DRD formulation) was 0.083 h. The half-life ([2]; IV, 5 mg/kg, DRD formulation) was 1 h, the AUC(0-inf) ([2]; PO, 50 mg/kg, 0.5% MC) was 351 µM·h and the AUC(0-t) ([2]; PO, 50 mg/kg, 0.5% MC) was 348 µM·h. It also gave a Cmax ([2]; PO, 50 mg/kg, 0.5% MC) of 43.5 µM, a Tmax ([2]; PO, 50 mg/kg, 0.5% MC) of 2 h and a half-life ([2]; PO, 50 mg/kg, 0.5% MC) of 3.2 h.

With `CC1=C(c2ccc(NC(=O)c3ccncc3F)cc2)CN(c2nccs2)CC1` [Tartrate, 3-fluoro-N-(4-(4-methyl-1-(thiazol-2-yl)-1,2,5,6-tetrahydropyridin-3-yl)phenyl)isonicotinamide] the “Water Solubility” value [1] was 1.34 mg/mL.

Work on `CC1=C(c2cnc(NC(=O)c3ccncc3F)cn2)CN(c2nccs2)CC1` [Compound 4, 3-fluoro-N-(5-(4-methyl-1-(thiazol-2-yl)-1,2,5,6-tetrahydropyridin-3-yl)pyrazin-2-yl)isonicotinamide] yielded an IC50 (IL-2 production) of no more than 0.035 µM and a solubility ([3]; simulated gastric fluid) of 50 µM (≈ 19.8 µg/mL).

For `CC1=C(c2ccc(NC(=O)c3ccncc3F)cc2)CN(c2nccs2)CC1` [HBr, 3-fluoro-N-(4-(4-methyl-1-(thiazol-2-yl)-1,2,5,6-tetrahydropyridin-3-yl)phenyl)isonicotinamide], the “Water Solubility” value [1] was 11.56 mg/mL.

`CC1=C(c2cnc(NC(=O)c3c(F)cccc3Cl)cn2)CN(c2nccs2)CC1` [Compound 20, 2-chloro-6-fluoro-N-(5-(4-methyl-1-(thiazol-2-yl)-1,2,5,6-tetrahydropyridin-3-yl)pyrazin-2-yl)benzamide] gave an IC50 (IL-2 production) of no more than 0.035 µM and a solubility [3] of 150 µM (≈ 64.5 µg/mL).
